Measured values: PubChem BioAssay (NCI)
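Method: 48-hour compound exposure of cells in 96-well plates, five concentrations, linear interpolation of endpoints. GI50 marks 50% less growth. TGI marks complete inhibition of growth.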

How the values were obtained:
Assay in all cases: NCI tumour cell line growth inhibition, 48 h
786-0 renal = system: 786-0 renal
A549 NSCLC = system: A549 NSCLC
ACHN renal = system: ACHN renal
BT-549 breast = system: BT-549 breast
HCT-116 colon = system: HCT-116 colon
HS 578T breast = system: HS 578T breast
IGROV1 ovarian = system: IGROV1 ovarian
MOLT-4 leukemia = system: MOLT-4 leukemia
NCI-H522 lung = system: NCI-H522 lung
OVCAR-3 ovarian = system: OVCAR-3 ovarian
OVCAR-5 ovarian = system: OVCAR-5 ovarian
SF-295 CNS = system: SF-295 CNS
SK-MEL-2 melanoma = system: SK-MEL-2 melanoma
SK-MEL-5 melanoma = system: SK-MEL-5 melanoma
SK-OV-3 ovarian = system: SK-OV-3 ovarian

Compound	TGI (786-0 renal)	TGI (A549 NSCLC)	TGI (ACHN renal)	TGI (BT-549 breast)	TGI (HCT-116 colon)	TGI (HS 578T breast)	TGI (IGROV1 ovarian)	TGI (MOLT-4 leukemia)	TGI (NCI-H522 lung)	TGI (OVCAR-3 ovarian)	TGI (OVCAR-5 ovarian)	TGI (SF-295 CNS)	TGI (SK-MEL-2 melanoma)	TGI (SK-MEL-5 melanoma)	TGI (SK-OV-3 ovarian)	GI50 (SK-OV-3 ovarian)
COCOC1/C=C/CCCCC(=O)C(C)C#CC1 (stereo not given)	5.44 µM	30.1 µM	19.9 µM	19.3 µM	3.34 µM	> 73.7 µM	18.1 µM	5.64 µM	3.37 µM	10.9 µM	26.2 µM	31.3 µM	21.2 µM	15.3 µM	32.3 µM	–
Cc1ccc(S(=O)(=O)N2C3C=CC(C3)[C@@H]2C(Cl)(Cl)Cl)cc1 (stereo not given in full)	49.5 µM	> 100 µM	53.1 µM	32.4 µM	24.7 µM	41.3 µM	> 71 µM	75 µM	41.3 µM	25.3 µM	–	35.1 µM	35.5 µM	38.3 µM	> 100 µM	39.2 µM
Cc1ccc(S[C@@H](C)[C@@](O)(CF)CN(Cc2ccccc2)C(=O)C(F)(F)F)cc1	35.4 µM	32.1 µM	60.3 µM	46.5 µM	27.3 µM	61.7 µM	> 100 µM	–	> 100 µM	27 µM	34.8 µM	–	36.5 µM	–	–	–
C[C@]12c3c4cc(NC(=O)C(=O)NCc5ccc(-c6ccccn6)nc5)cc3Oc3cc(NC(=O)C(=O)NCc5ccc(-c6ccccn6)nc5)cc(c31)OC1C=C(NC(=O)C(=O)NCc3ccc(-c5ccccn5)nc3)C=C(O4)C12 (stereo not given in full)	75.5 µM	> 100 µM	59.2 µM	> 100 µM	> 100 µM	> 100 µM	40.6 µM	> 100 µM	> 100 µM	> 100 µM	> 100 µM	> 100 µM	> 100 µM	> 100 µM	> 100 µM	–
COc1ccc(S(=O)(=O)n2c3c(c4ccccc42)[C@@H]2[C@@H](CCCN2C(=O)CS(=O)c2ccc(C)cc2)[C@H](Cl)C3)cc1 (stereo not given in full)	> 100 µM	> 100 µM	–	> 100 µM	> 100 µM	> 100 µM	> 100 µM	> 100 µM	> 100 µM	> 100 µM	> 100 µM	> 100 µM	> 100 µM	> 100 µM	> 100 µM	–
O=C(O)C1C2c3ccccc3C(c3ccccc32)C1C(=O)NCC1CC1 (stereo not given)	> 100 µM	> 100 µM	> 100 µM	> 100 µM	> 100 µM	> 100 µM	> 100 µM	> 100 µM	86.9 µM	> 100 µM	> 100 µM	> 100 µM	> 100 µM	> 100 µM	> 100 µM	–
CC(C)(CN1CCCCC1)C(/C=C/c1ccc(Cl)cc1)=N\NC(=O)N/N=C(/C=C/c1ccc(Cl)cc1)C(C)(C)CN1CCCCC1	11.1 µM	> 57 µM	15 µM	13.2 µM	12.5 µM	19.9 µM	13.4 µM	9.97 µM	8.05 µM	10.7 µM	14.7 µM	33 µM	22.8 µM	11.2 µM	25.4 µM	–
COC(=O)[C@]1(C)CCC[C@@]2(C)C1CC[C@@]13C=C(C(C)C)[C@@H](CC1=O)CC23 (stereo not given in full)	60.7 µM	> 100 µM	45.1 µM	63.4 µM	42 µM	43.9 µM	> 100 µM	31 µM	38.5 µM	45.9 µM	–	68.3 µM	–	33 µM	> 100 µM	–
CCOC(=O)/C(C#N)=C/c1coc2cc(C)cc(C)c2c1=O	> 100 µM	> 100 µM	> 100 µM	> 100 µM	> 100 µM	> 100 µM	> 100 µM	> 100 µM	> 100 µM	> 100 µM	> 100 µM	> 100 µM	–	> 100 µM	> 100 µM	–
COC(=O)c1ccc(Cc2cc(Cc3ccc(C(=O)OC)cc3)cc(Cc3ccc(C(=O)OC)cc3)c2)cc1	> 25 µM	> 25 µM	> 25 µM	> 25 µM	> 25 µM	> 25 µM	> 25 µM	> 25 µM	> 25 µM	> 25 µM	> 25 µM	> 25 µM	> 25 µM	–	> 25 µM	–
CC(C)=C[C@H]1C[C@H](C)[C@H]2CC[C@H](C)c3c2c1c(C)c1ncoc31	36.1 µM	32.3 µM	32.7 µM	36.3 µM	33.6 µM	45 µM	27 µM	32.3 µM	31.5 µM	28.7 µM	29.9 µM	31.2 µM	31.1 µM	28.6 µM	–	–
COc1ccc2oc3c(C)cc4c(OC)nnc(OC)c4c3c2c1	> 100 µM	> 100 µM	> 100 µM	> 100 µM	6.55 µM	> 100 µM	–	> 100 µM	> 100 µM	> 100 µM	> 100 µM	> 100 µM	> 100 µM	> 100 µM	> 100 µM	–
CC(C)C(NC(=O)Oc1ccccc1)C(=O)NC1c2c(Br)sc(Br)c2C(=O)C1O (stereo not given)	> 25 µM	> 25 µM	10.2 µM	8.16 µM	7.34 µM	> 25 µM	8.11 µM	> 25 µM	–	8.21 µM	15.4 µM	> 25 µM	17.7 µM	8.36 µM	> 25 µM	–
COc1ccc(C(C)NNC(=O)c2ccncc2)cc1OC (stereo not given)	> 100 µM	> 100 µM	> 100 µM	> 100 µM	> 100 µM	> 100 µM	> 100 µM	> 100 µM	–	> 100 µM	> 100 µM	> 100 µM	> 100 µM	> 100 µM	> 100 µM	–
C[C@]12[C@@H]3CC[C@H]1[C@@H](O)C(=O)N2CC3	> 100 µM	> 100 µM	> 100 µM	> 100 µM	> 100 µM	> 100 µM	> 100 µM	> 100 µM	> 100 µM	–	> 100 µM	> 100 µM	> 100 µM	> 100 µM	> 100 µM	–
CC(N)/C(N)=N/O (stereo not given)	> 100 µM	> 100 µM	> 100 µM	> 100 µM	> 100 µM	> 100 µM	> 100 µM	–	> 100 µM	> 100 µM	> 100 µM	> 100 µM	> 100 µM	> 100 µM	> 100 µM	–
